#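 Grown in 96-well plates, cells were treated for 48 hours with each compound at five concentrations. Insufficient inhibition: endpoint recorded as highest concentration tested. The concentration for 50% growth inhibition is given as GI50. Definition used: TGI = concentration required for complete inhibition of growth.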
# Assays:
# Experiment in all cases: NCI tumour cell line growth inhibition, 48 h
# 786-0 renal = test system: 786-0 renal
# A549 NSCLC = test system: A549 NSCLC
# CAKI-1 renal = test system: CAKI-1 renal
# CCRF-CEM leukemia = test system: CCRF-CEM leukemia
# COLO 205 colon = test system: COLO 205 colon
# DLD-1 colon = test system: DLD-1 colon
# DMS 114 small cell lung = test system: DMS 114 small cell lung
# DMS 273 small cell lung = test system: DMS 273 small cell lung
# EKVX NSCLC = test system: EKVX NSCLC
# HCC-2998 colon = test system: HCC-2998 colon
# HCT-116 colon = test system: HCT-116 colon
# HCT-15 colon = test system: HCT-15 colon
# HT29 colon = test system: HT29 colon
# IGROV1 ovarian = test system: IGROV1 ovarian
# KM12 colon = test system: KM12 colon
# KM20L2 colon = test system: KM20L2 colon
# LOX IMVI melanoma = test system: LOX IMVI melanoma
# M14 melanoma = test system: M14 melanoma
# MALME-3M melanoma = test system: MALME-3M melanoma
# NCI-H226 lung = test system: NCI-H226 lung
# NCI-H23 lung = test system: NCI-H23 lung
# NCI-H460 lung = test system: NCI-H460 lung
# OVCAR-3 ovarian = test system: OVCAR-3 ovarian
# OVCAR-4 ovarian = test system: OVCAR-4 ovarian
# OVCAR-5 ovarian = test system: OVCAR-5 ovarian
# OVCAR-8 ovarian = test system: OVCAR-8 ovarian
# RXF 393 renal = test system: RXF 393 renal
# SF-268 CNS = test system: SF-268 CNS
# SF-295 CNS = test system: SF-295 CNS
# SF-539 CNS = test system: SF-539 CNS
# SK-MEL-2 melanoma = test system: SK-MEL-2 melanoma
# SK-MEL-28 melanoma = test system: SK-MEL-28 melanoma
# SK-MEL-5 melanoma = test system: SK-MEL-5 melanoma
# SK-OV-3 ovarian = test system: SK-OV-3 ovarian
# SN12C renal = test system: SN12C renal
# SNB-19 CNS = test system: SNB-19 CNS
# SNB-75 CNS = test system: SNB-75 CNS
# SR leukemia = test system: SR leukemia
# SW-620 colon = test system: SW-620 colon
# TK-10 renal = test system: TK-10 renal
# U251 CNS = test system: U251 CNS
# UACC-257 melanoma = test system: UACC-257 melanoma
# UACC-62 melanoma = test system: UACC-62 melanoma
# UO-31 renal = test system: UO-31 renal
# ACHN renal = test system: ACHN renal
# HOP-62 NSCLC = test system: HOP-62 NSCLC
# HOP-92 NSCLC = test system: HOP-92 NSCLC
# LXFL 529 NSCLC = test system: LXFL 529 NSCLC
# M19-MEL melanoma = test system: M19-MEL melanoma
# NCI-H522 lung = test system: NCI-H522 lung
# SNB-78 CNS = test system: SNB-78 CNS
# A498 renal = test system: A498 renal
# BT-549 breast = test system: BT-549 breast
# DU-145 prostate = test system: DU-145 prostate
# HL-60(TB) leukemia = test system: HL-60(TB) leukemia
# HS 578T breast = test system: HS 578T breast
# K-562 leukemia = test system: K-562 leukemia
# MCF7 breast = test system: MCF7 breast
# MDA-MB-231 breast = test system: MDA-MB-231 breast
# MDA-MB-435 = test system: MDA-MB-435
# MDA-N = test system: MDA-N
# MOLT-4 leukemia = test system: MOLT-4 leukemia
# NCI/ADR-RES ovarian = test system: NCI/ADR-RES ovarian
# PC-3 prostate = test system: PC-3 prostate
# RPMI-8226 leukemia = test system: RPMI-8226 leukemia
# T-47D breast = test system: T-47D breast
smiles,measurement,setting,value
[Cl-].[Cl-].[Cl-].[O-]c1cccc2cccnc12.[O-]c1cccc2cccnc12.[O]=[Mo],GI50,786-0 renal,18.5 µM
same,TGI,786-0 renal,99.8 µM
same,GI50,A549 NSCLC,3.59 µM
same,TGI,A549 NSCLC,> 100 µM
same,GI50,CAKI-1 renal,20.6 µM
same,TGI,CAKI-1 renal,> 100 µM
same,GI50,CCRF-CEM leukemia,0.35 µM
same,TGI,CCRF-CEM leukemia,> 100 µM
same,GI50,COLO 205 colon,4.6 µM
same,TGI,DLD-1 colon,> 100 µM
same,TGI,DMS 114 small cell lung,3.13 µM
same,TGI,DMS 273 small cell lung,4.41 µM
same,GI50,EKVX NSCLC,15.4 µM
same,TGI,EKVX NSCLC,78.4 µM
same,GI50,HCC-2998 colon,2.41 µM
same,TGI,HCC-2998 colon,5.69 µM
same,GI50,HCT-116 colon,2.58 µM
same,TGI,HCT-116 colon,36.4 µM
same,GI50,HCT-15 colon,2.39 µM
same,TGI,HCT-15 colon,> 100 µM
same,GI50,HT29 colon,2.88 µM
same,TGI,HT29 colon,11.5 µM
same,TGI,IGROV1 ovarian,35 µM
same,GI50,KM12 colon,0.448 µM
same,TGI,KM12 colon,2.08 µM
same,TGI,KM20L2 colon,70.6 µM
same,GI50,LOX IMVI melanoma,2.33 µM
same,TGI,LOX IMVI melanoma,22 µM
same,GI50,M14 melanoma,1.81 µM
same,TGI,M14 melanoma,5.48 µM
same,GI50,MALME-3M melanoma,2.25 µM
same,TGI,MALME-3M melanoma,4.99 µM
same,GI50,NCI-H226 lung,2.28 µM
same,TGI,NCI-H226 lung,14.2 µM
same,GI50,NCI-H23 lung,2.6 µM
same,TGI,NCI-H23 lung,8.38 µM
same,GI50,NCI-H460 lung,2.52 µM
same,TGI,NCI-H460 lung,11.7 µM
same,GI50,OVCAR-3 ovarian,6.88 µM
same,TGI,OVCAR-3 ovarian,> 100 µM
same,GI50,OVCAR-4 ovarian,3.9 µM
same,TGI,OVCAR-4 ovarian,47 µM
same,GI50,OVCAR-5 ovarian,2.85 µM
same,TGI,OVCAR-5 ovarian,8.6 µM
same,GI50,OVCAR-8 ovarian,2.53 µM
same,TGI,OVCAR-8 ovarian,12.3 µM
same,GI50,RXF 393 renal,2 µM
same,TGI,RXF 393 renal,4.89 µM
same,GI50,SF-268 CNS,6.33 µM
same,TGI,SF-268 CNS,55.2 µM
same,GI50,SF-295 CNS,2.8 µM
same,TGI,SF-295 CNS,17.2 µM
same,GI50,SF-539 CNS,7.34 µM
same,TGI,SF-539 CNS,> 100 µM
same,GI50,SK-MEL-2 melanoma,3.37 µM
same,TGI,SK-MEL-2 melanoma,18.1 µM
same,GI50,SK-MEL-28 melanoma,2.43 µM
same,TGI,SK-MEL-28 melanoma,9.41 µM
same,TGI,SK-MEL-5 melanoma,3.89 µM
same,GI50,SK-OV-3 ovarian,15.1 µM
same,TGI,SK-OV-3 ovarian,39.6 µM
same,GI50,SN12C renal,6.71 µM
same,TGI,SN12C renal,> 100 µM
same,GI50,SNB-19 CNS,4.87 µM
same,TGI,SNB-19 CNS,> 100 µM
same,GI50,SNB-75 CNS,5.08 µM
same,TGI,SNB-75 CNS,> 100 µM
same,TGI,SR leukemia,> 100 µM
same,GI50,SW-620 colon,1.92 µM
same,TGI,SW-620 colon,> 100 µM
same,GI50,TK-10 renal,15.2 µM
same,TGI,TK-10 renal,> 100 µM
same,GI50,U251 CNS,3.57 µM
same,TGI,U251 CNS,40.5 µM
same,GI50,UACC-257 melanoma,2.1 µM
same,TGI,UACC-257 melanoma,6.69 µM
same,GI50,UACC-62 melanoma,2.49 µM
same,TGI,UACC-62 melanoma,7.41 µM
same,GI50,UO-31 renal,4.09 µM
same,TGI,UO-31 renal,24.1 µM
Cc1ccc(C(=O)Nc2ccccc2)cc1N=NN(C)C,TGI,786-0 renal,44 µM
same,TGI,A549 NSCLC,> 100 µM
same,TGI,ACHN renal,> 100 µM
same,TGI,CAKI-1 renal,> 100 µM
same,TGI,DLD-1 colon,> 100 µM
same,TGI,DMS 273 small cell lung,> 100 µM
same,TGI,EKVX NSCLC,> 100 µM
same,TGI,HCC-2998 colon,> 100 µM
same,TGI,HCT-116 colon,> 100 µM
same,TGI,HCT-15 colon,> 100 µM
same,TGI,HOP-62 NSCLC,> 100 µM
same,TGI,HOP-92 NSCLC,> 100 µM
same,TGI,HT29 colon,> 100 µM
same,TGI,IGROV1 ovarian,> 100 µM
same,TGI,KM12 colon,> 100 µM
same,TGI,LOX IMVI melanoma,> 100 µM
same,TGI,LXFL 529 NSCLC,> 100 µM
same,TGI,M14 melanoma,> 100 µM
same,TGI,M19-MEL melanoma,> 100 µM
same,TGI,NCI-H23 lung,> 100 µM
same,TGI,NCI-H460 lung,> 100 µM
same,TGI,NCI-H522 lung,> 100 µM
same,TGI,OVCAR-3 ovarian,> 100 µM
same,TGI,OVCAR-4 ovarian,> 100 µM
same,TGI,OVCAR-8 ovarian,> 100 µM
same,TGI,SF-268 CNS,> 100 µM
same,TGI,SF-295 CNS,> 100 µM
same,TGI,SF-539 CNS,> 100 µM
same,TGI,SK-MEL-2 melanoma,> 100 µM
same,TGI,SK-MEL-28 melanoma,> 100 µM
same,TGI,SK-MEL-5 melanoma,> 100 µM
same,TGI,SN12C renal,> 100 µM
same,TGI,SNB-19 CNS,> 100 µM
same,TGI,SNB-78 CNS,> 100 µM
same,TGI,SW-620 colon,> 100 µM
same,TGI,TK-10 renal,> 100 µM
same,TGI,U251 CNS,> 100 µM
same,TGI,UACC-257 melanoma,> 100 µM
same,TGI,UACC-62 melanoma,> 100 µM
same,TGI,UO-31 renal,> 100 µM
Cn1c(=O)[nH]c2nccnc2c1=O,TGI,786-0 renal,> 10 µM
same,TGI,A498 renal,> 10 µM
same,TGI,A549 NSCLC,> 10 µM
same,TGI,ACHN renal,> 10 µM
same,TGI,BT-549 breast,> 10 µM
same,TGI,CAKI-1 renal,> 10 µM
same,TGI,CCRF-CEM leukemia,> 10 µM
same,TGI,COLO 205 colon,> 10 µM
same,TGI,DU-145 prostate,> 10 µM
same,TGI,EKVX NSCLC,> 10 µM
same,TGI,HCC-2998 colon,> 10 µM
same,TGI,HCT-116 colon,> 10 µM
same,TGI,HCT-15 colon,> 10 µM
same,TGI,HL-60(TB) leukemia,> 10 µM
same,TGI,HOP-62 NSCLC,> 10 µM
same,TGI,HOP-92 NSCLC,> 10 µM
same,TGI,HS 578T breast,> 10 µM
same,TGI,HT29 colon,> 10 µM
same,TGI,IGROV1 ovarian,> 10 µM
same,TGI,K-562 leukemia,> 10 µM
same,TGI,KM12 colon,> 10 µM
same,TGI,LOX IMVI melanoma,> 10 µM
same,TGI,M14 melanoma,> 10 µM
same,TGI,MALME-3M melanoma,> 10 µM
same,TGI,MCF7 breast,> 10 µM
same,TGI,MDA-MB-231 breast,> 10 µM
same,TGI,MDA-MB-435,> 10 µM
same,TGI,MDA-N,> 10 µM
same,TGI,MOLT-4 leukemia,> 10 µM
same,TGI,NCI-H226 lung,> 10 µM
same,TGI,NCI-H23 lung,> 10 µM
same,TGI,NCI-H460 lung,> 10 µM
same,TGI,NCI-H522 lung,> 10 µM
same,TGI,NCI/ADR-RES ovarian,> 10 µM
same,TGI,OVCAR-3 ovarian,> 10 µM
same,TGI,OVCAR-4 ovarian,> 10 µM
same,TGI,OVCAR-5 ovarian,> 10 µM
same,TGI,OVCAR-8 ovarian,> 10 µM
same,TGI,PC-3 prostate,> 10 µM
same,TGI,RPMI-8226 leukemia,> 10 µM
same,TGI,RXF 393 renal,> 10 µM
same,TGI,SF-268 CNS,> 10 µM
same,TGI,SF-295 CNS,> 10 µM
same,TGI,SF-539 CNS,> 10 µM
same,TGI,SK-MEL-2 melanoma,> 10 µM
same,TGI,SK-MEL-28 melanoma,> 10 µM
same,TGI,SK-MEL-5 melanoma,> 10 µM
same,TGI,SK-OV-3 ovarian,> 10 µM
same,TGI,SN12C renal,> 10 µM
same,TGI,SNB-19 CNS,> 10 µM
same,TGI,SNB-75 CNS,> 10 µM
same,TGI,SR leukemia,> 10 µM
same,TGI,SW-620 colon,> 10 µM
same,TGI,T-47D breast,> 10 µM
same,TGI,TK-10 renal,> 10 µM
same,TGI,U251 CNS,> 10 µM
same,TGI,UACC-257 melanoma,> 10 µM
same,TGI,UACC-62 melanoma,> 10 µM
same,TGI,UO-31 renal,> 10 µM

# Reference: PubChem BioAssay (NCI)
